Test: gradient 5% acetonitrile 3 min, to 50% in 2 min, to 85% in 15 min, held 3 min, 100 µL/min
Settings: column: Zorbax Extend-C18 2.1 x 50 mm; eluents: water / acetonitrile, 0.1% formic acid
Summary of the method: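 The mobile phases were water and acetonitrile, each with 0.1% formic acid, pumped at 100 μL/min through a Zorbax Extend-C18 column (2.1 × 50 mm, 1.8 μm). Pure standards were injected as mixtures of ~100 molecules and detected by a quadrupole time-of-flight mass spectrometer in positive and negative ionization mode. Retention time came from computationally picked adduct peaks, each inspected by hand.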

Row | SMILES | RP-LC retention time [s]
1 | OC(c1cc(C(F)(F)F)nc2c(Cl)cc(Cl)cc12)C1CCCCN1 (stereo unspecified) | 786
2 | O=C(Cc1ccccc1Cl)Nc1ccc(-c2nc(-c3ccccc3)co2)cc1 | 1150
3 | CC(C)c1ccc(NC(=O)c2cn(C)nc2S(=O)(=O)N2CCSCC2)cc1 | 944
4 | CCC1Oc2ccc(S(=O)(=O)N3CCC(C(=O)Nc4ccc(C)c(C)c4)CC3)cc2NC1=O (stereo unspecified) | 930
5 | CC(=O)N(Cc1nn(C)c2c1CN(S(=O)(=O)c1ccc(F)c(Cl)c1)CC2)c1ccccc1 | 860
6 | COc1ccccc1-n1ccnc(NC(=O)Nc2ccc(F)cc2)c1=O | 896
7 | O=C1c2cccc3cccc(c23)C(=O)N1CC(=O)N1CCCc2ccccc21 | 593
8 | Cc1sc(-c2cc(C(F)(F)F)on2)cc1S(=O)(=O)N1CCCCC1 | 1210
9 | Cc1ccc(-c2csc(NC(=O)CCCOc3ccc(Cl)cc3)n2)cc1 | 979
10 | Cc1cc(C)cc(NS(=O)(=O)c2ccc(-c3nnc(C4CCC4)o3)o2)c1 | 996
11 | CCn1nc(C(=O)Nc2nc3c(OC)ccc(C)c3s2)cc1C | 872
12 | COc1cccc(N2C=C(C(=O)N3CCOCC3)S(=O)(=O)c3ccccc32)c1 | 645
13 | CCn1c(N2CCC(C(=O)N3CCN(c4ccccn4)CC3)CC2)cc(=O)n(C)c1=O | 584
14 | Cc1cccc(-n2c(=O)c3c(cc(C)n3C)n(CC(=O)Nc3ccc(F)c(Cl)c3)c2=O)c1 | 940
15 | CC(=O)N1CCc2cc(CNS(=O)(=O)c3ccccc3F)ccc21 | 738
16 | CN1C(=O)c2cccnc2Sc2cc(NC(=O)c3ccc(C(F)(F)F)cc3)ccc21 | 910
17 | CC(=O)N(Cc1nn(C)c2c1CN(Cc1cn[nH]c1-c1cccs1)CC2)c1ccccc1 | 589
18 | Cc1ccc(OCC(=O)N2C[C@@H]3C[C@H]2C[C@@H]3NS(=O)(=O)c2ccccc2)cc1 | 764
19 | Cn1nnnc1NCc1ccc2c(c1)n(C)c(=O)n2C | 597
20 | Cc1sc(-c2noc(C3CC3)n2)cc1S(=O)(=O)N1CCC(C(=O)NCc2cccs2)CC1 | 983
21 | O=c1c2nnc3ccnn3c2ccn1CCc1c[nH]c2ccc(F)cc12 | 709
22 | Cc1ccc(-c2noc(C3CCCN3S(=O)(=O)c3ccc(Br)cc3)n2)cc1 (stereo unspecified) | 1230

Row | SMILES | RP-LC retention time [s]
23 | Cc1nn(-c2ccccc2)c(C)c1S(=O)(=O)N1CCC(C(=O)NC2CCCCCC2)CC1 | 965
24 | CC(C)CCN1CCC(N2CCN(S(=O)(=O)Cc3ccc(F)cc3Cl)CC2)C1=O (stereo unspecified) | 682
25 | O=C(NCc1ccc(N2CCCC2)nc1)c1cccc(Br)c1 | 646
26 | O=C(Nc1ccc(F)cc1)C1CCCN(c2ncnc3c2nc2n3CCCCC2)C1 (stereo unspecified) | 803
27 | CC(=O)c1ccc(N2CCN(C(=O)c3nnn4c3COC(c3ccc(F)cc3)C4)CC2)cc1 (stereo unspecified) | 914
28 | CCc1ccc(C2=C(C)C(N3CCCN(C(=O)C4CCCCC4)CC3)=NS2(=O)=O)cc1 | 976
29 | COC(=O)c1cnc2nc(C)ccc2c1Nc1ccc(OC)c(OC)c1 | 630
30 | CCN(CC)c1ccc(NC(=O)C2CCCN(S(=O)(=O)c3cn(C(C)C)cn3)C2)c(C)c1 (stereo unspecified) | 622
31 | COc1ccc(C(=O)c2cnc3cc4c(cc3c2N2CCN(C)CC2)OCCO4)cc1 | 560
32 | COc1cccc(-c2ccc3nc(N4CCC(C(=O)N5CCCC5)CC4)sc3n2)c1 | 912
33 | Oc1ccc2c3c1O[C@H]1c4[nH]c5ccccc5c4C[C@@]4(O)C(C2)N(CC2CC2)CC[C@]314 | 717
34 | Cc1nc(NC(=O)CNC(=O)c2c[nH]c3ccccc23)sc1C(=O)N(C)C | 614
35 | CC1CCN(C(=O)c2cn(-c3ccc(S(=O)(=O)N4CCCC(C)C4)cn3)cn2)CC1 (stereo unspecified) | 954
36 | O=C(NCc1ccc(F)cc1Cl)c1cn(-c2cc(N3CCOCC3)ncn2)cn1 | 840
37 | CC(=O)N1CCCC(C(=O)N2CCOCC2)C1 (stereo unspecified) | 554
38 | COc1ccc(OC)c(NC(=O)N2CCC(C)(C(=O)NCc3ccc4c(c3)OCO4)CC2)c1 | 806
39 | O=C(Cn1nc(S(=O)(=O)c2ccccc2)ccc1=O)N1CCN(c2ccccc2F)CC1 | 870
40 | COCCn1cc(CCNC(=O)Nc2cc(Cl)ccc2C)c2cccnc21 | 795
41 | Fc1ccc(-c2noc(Cc3nnc(-c4cccc(Cl)c4)o3)n2)cc1 | 1070
42 | C=CCN1C(=O)COc2ccc(-c3nc(NC(=O)c4ccncc4)sc3C)cc21 | 810
43 | Cc1ccc(C(=O)N2CCC3(C2)C(=O)N(C)c2ccccc23)cc1 (stereo unspecified) | 792
44 | COc1cc(-c2noc(CCn3nc(-c4ccccc4)ccc3=O)n2)cc(OC)c1OC | 955

Row | SMILES | RP-LC retention time [s]
45 | COc1ccc(NC(=O)C2CC(=O)N(c3ccc4oc(C)nc4c3)C2)cc1 (stereo unspecified) | 706
46 | COc1cc(NC(=O)CCSc2ccccc2)c2ncccc2c1 | 1060
47 | COc1ccc(NC(=O)c2cn(-c3cc(N(C)C)ncn3)cn2)cc1OC | 678
48 | O=C(Nc1c(-c2ccccc2)nc2ccccn12)c1ccc2ccccc2c1 | 720
49 | CCNc1nc(C)cc(N2CCN(C(=O)Nc3cc(Cl)ccc3OC)CC2)n1 | 709
50 | Cc1ccc(CN2CCC(CNS(=O)(=O)c3ccc4c(c3)CCCC(=O)N4)CC2)cc1 | 762
51 | CC(C)Cn1cc(CCNC(=O)Nc2ccc(C(F)(F)F)cc2)c2cccnc21 | 970
52 | O=C(Cn1cccc(-c2nc(-c3ccc(F)cc3)no2)c1=O)Nc1ccc(Br)cc1 | 992
53 | CCc1cc(C(=O)Nc2ccc(N3CCOCC3)cc2)nc2cc(-c3ccco3)nn12 | 683
54 | O=C(c1ccc(Cl)cc1)N1CCN(c2cc(-c3ccc(Cl)cc3)[nH]n2)CC1 | 936
55 | Cc1ccc(C(C)NC(=O)C2CCCN(c3nc4c(s3)c(C)nn4-c3ccc(F)cc3)C2)cc1 (stereo unspecified) | 1230
56 | O=C(Cc1cccc(C(F)(F)F)c1)Nc1cccn2cnnc12 | 744
57 | CC(C)Cn1cc(S(=O)(=O)NCc2cccc(F)c2)c2cccnc21 | 953
58 | Cc1cccc(-c2nc3c4ccccc4nc(N4CCN(c5ccccn5)CC4)n3n2)c1 | 921
59 | COc1ccc(-n2c(CN3CCN(C(=O)NC4CCCCC4)CC3)nc3cccnc32)cc1 | 668
60 | O=C(NC1CCc2ccccc21)c1nnn(-c2ccc(F)cc2)c1-c1ccncc1 (stereo unspecified) | 799
61 | c1ccc(CN2CCN(c3ncccc3-c3nc(-c4ccccc4)no3)CC2)cc1 | 769
62 | Cc1ccc(Nc2c(-c3cccc(Cl)c3)nc3cc(C)ccn23)cc1 | 890
63 | Cc1cc(S(=O)(=O)N(C)CC2CCOC2)ccc1F (stereo unspecified) | 836
64 | COCCn1cc(CCNC(=O)Nc2cc(Cl)cc(Cl)c2)c2cccnc21 | 893
65 | CCC(C)NC(=O)N1CCCN(C2=NS(=O)(=O)C(c3ccc(C)cc3)=C2C)CC1 (stereo unspecified) | 816
66 | Cc1cc(C)c(C(=O)N2CCCC(C(=O)N3CCN(c4cccc(C)c4C)CC3)C2)[nH]1 (stereo unspecified) | 996

Row | SMILES | RP-LC retention time [s]
67 | COc1ccc(Nc2c(C(=O)N3CCC(C)CC3)cnc3nc(C)ccc23)cc1OC | 629
68 | Cc1cccc(NC(=O)c2csc(-c3cn(C)c4ncccc34)n2)c1 | 1040
69 | COc1ccc(C2(c3nc(C4CC(=O)N(c5ccc(C)cc5)C4)no3)CC2)cc1 (stereo unspecified) | 1060
70 | O=C(NCc1ccc(F)c(Cl)c1)c1nnn(-c2ccccc2)c1-c1ccccn1 | 872
71 | COc1ccc(NC(=O)CSc2nccc3c2ccn3C)c(OC)c1 | 687
72 | Cc1ccc(N2CCC(NC(=O)c3cccs3)C2=O)cc1C (stereo unspecified) | 827
73 | CCN1CCCn2cc(S(=O)(=O)Nc3ccc(Cl)cc3C)cc2C1=O | 790
74 | O=C(C1CC1)N1CCc2sc(S(=O)(=O)Nc3ccccc3Br)cc2C1 | 858
75 | COc1ccc(Cl)cc1NC(=O)Cc1csc2nc(-c3ccccc3)cn12 | 902
76 | CCN(CC)CCNS(=O)(=O)c1cc(-c2cc(C)[nH]n2)sc1C | 589
77 | Cc1ccccc1CC(=O)N1CCC2(CC1)NC(=O)c1ccc(F)cc1N2C | 798
78 | COC(=O)c1cccc(NC(=O)c2sc(-c3cn(C)c4ncccc34)nc2C)c1 | 927
79 | COc1ccc(F)cc1S(=O)(=O)N1C[C@@H]2C[C@H](NC(=O)c3cccs3)[C@H]1C2 | 834
80 | O=C(COc1ccc(Cl)cc1)NCC1(O)CCOCC1 | 623
81 | CCN1C(=O)C(C)(C(=O)Nc2cc(C)ccc2C)Oc2cccnc21 (stereo unspecified) | 744
82 | COc1ccc(NC(=O)c2cc3c(=O)n(CC(C)C)c4ccccc4n3n2)cc1OC | 910
83 | COc1ccc(C(C)NC(=O)COc2ccc(NC(=O)C3CC3)cn2)cc1OC (stereo unspecified) | 689
84 | Cc1c(C(=O)O)nnn1-c1ccc(C(F)(F)F)cc1 | 730
85 | CCn1cc(CCN2CCN(C(=O)Cc3cccs3)CC2)c2cccnc21 | 590
86 | CN1CCCc2ccc(NC(=O)CC3CCCN(c4cn[nH]c(=O)c4)C3)cc21 (stereo unspecified) | 638
